From EP0345068B1, “Agonist of gamma-aminobutyric acid” (JOHN WYETH & BROTHER LIMITED, priority 1988, dated 1989)

Columns and labels:
GABA autoreceptor [1] = assay: Procedure 1: inhibition of potassium-evoked [3H]-GABA release from rat cerebral cortex slices; type: cell-based; settings: for GABA autoreceptor pD2 values: inhibition of 25 mM potassium-evoked [3H]-GABA release, rat cortex slices in vitro
Method: (§1) The following test procedures were used to measure activity at (a) GABA autoreceptors and GABAB receptors by inhibition of potassium-evoked GABA and noradrenalin release from rat cortex in vitro (Procedure 1); and (b) GABAA receptors by enhancement of [3H]-flunitrazepam binding in rat cortex in vitro (Procedure 2):
(§2) Slices (0.25 x 0.25 x 2.0 mm) of rat cerebral cortex are prepared using a McIlwain tissue chopper. The slices are incubated in Krebs-Henseleit solution containing [³H]-GABA (10⁻⁷M) and [¹⁴C]-noradrenaline (10⁻⁷M) in the presence of amino-oxyacetic acid (AOAA) (10⁻⁵M), pargyline (10⁻⁶M) and ascorbic acid (10⁻⁴M), for 20 minutes at 37°C, rinsed with 5 ml aliquots of Krebs-Henseleit solution and transferred to 10 superfusion chambers (volume 300»l). The slices are continuously superfused with Krebs-Henseleit solution (0.4 ml min⁻¹) containing AOAA (10⁻⁵M) and fractions of the superfusate collected every 4 minutes. Transmitter release is induced by 4 minute exposure to a Krebs-Henseleit solution containing 25 mM potassium (with concomitant reduction in sodium to maintain osmolarity) after 68 (S₁) and 92 (S₂) minutes of superfusion. The compound under study is added to the superfusing medium 20 minutes prior to the second potassium stimulation. The residual radioactivity in the slices at the end of the experiment together with that in the superfusate fractions is measured by liquid scintillation counting using a dual label programme for tritium and carbon-14. Calculations: The amount of radioactivity (either tritium or carbon-14) in each fraction is expressed as a percentage of the respective total radioactivity in the tissue at the start of the respective collection period. The amount of radioactivity released above basal by the increased potassium is calculated and the ratio S2/S1 obtained. The S2/S1 ratio from drug-treated slices is expressed as a percentage of the control S2/S1 ratio.

GABAB receptors = molecular target: T1, GABAB receptors (Rattus norvegicus, UniProt Q9Z0U4); assay: Procedure 1: inhibition of potassium-evoked [14C]-noradrenaline release from rat cerebral cortex slices; type: cell-based; settings: for inhibition at 10 µM: 10^-5M, potassium-evoked noradrenaline release, rat cortex slices, failure to inhibit indicates no GABAB agonist activity
T1 construct: Slices (0.25 x 0.25 x 2.0 mm) of rat cerebral cortex; from tissue; host or cells: rat cerebral cortex slices
Method: as §1
as §2, with “ratio. For compounds achieving inhibition of 30% or more pD₂ values are calculated from plots of inhibition of release versus concentration of drug.” for “ratio.”

GABAA receptors = assay: Procedure 2: enhancement of [3H]-flunitrazepam binding in rat cortex membranes; settings: for Enhancement of [3H]-flunitrazepam binding: 20nM [3H]-flunitrazepam, rat cortex membranes, 30 minutes at 37°C
Method: as §1
Cortices from six or more rats are excised and homogenised in 50 volumes (volume/weight) 50mM Tris buffer (pH 7.4 at 37°C) using a Polytron homogeniser on speed 5 for 30 seconds. Tissue is kept at O°C throughout the procedure. The homogenate is centrifuged at 40,000 x g for 15 minutes and the pellet resuspended (Polytron 5, 10 sec.) in 50 volumes (original weight) of Tris buffer. Centrifugation and resuspension is repeated followed by incubation at 37°C for 10 minutes. The homogenate is centrifuged (40,000 x g, 15 min), resuspended in 10 volumes (original weight) Tris and stored below -20°C for more than 24 hours.
On the day of the experiment, membranes are thawed at 37°C and made up to 20 volumes (original weight) with Tris Krebs (20mM, see below). The membranes are homogenised (Polytron 5, 30 sec), incubated at 37°C for 15 minutes and centrifuged at 20,000 x g for 10 minutes. This wash and resuspension is repeated two more times with the final pellet resuspended in 100 volumes (original weight) Tris Krebs ready for use.
The test compound (50»l) and 20nM (final concentration) [³H]-flunitrazepam (50»l) are dispensed in triplicate. The reaction is started by the addition of 900»l of membrane preparation. After a 30 minute incubation at 37°C the reaction is stopped by filtration through Whatman GF/B filters under reduced pressure using a Brandell Cell Harvester, with two 7.5 ml filter washings. The radioactivity retained on the filters is measured by liquid scintillation counting. Tris Krebs composition: NaCl-136mM, KCl-5mM, MgSO₄-2mM, KH₂PO₄-2mM, CaCl₂-2mM, Tris buffer (pH 7.4 at 37°C)-20mM, ascorbic acid-lmM, disodium ethylenediamine tetraacetic acid-lmM.
Calculations: Results are calculated as follows: [formula]

[2] = tested on: postsynaptic GABAA receptors; assay: Procedure 3: drug ejected onto nigral neurones in vivo, test of postsynaptic GABAA receptor effect; parameters: species or system rat; settings: anaesthetized male albino rats; ejected iontophoretically in the vicinity of nigral neurones
Method: (§3) Experiments were performed on male albino rats (240-280g) lightly anaesthetized with urethane (1.2-1.4 g/kg i.p.) or Halothane (0.7-1.0% in 0₂). The animal's temperature was maintained between 36-38°C via a thermostatically controlled heating blanket.
(§4) The caudate nucleus and substantia nigra were approached dorsally after exposing the overlying cortex. Pulsations of the brain and cerebral oedema were minimised by allowing cerebral spinal fluid to leak from a cisternal puncture. The exposed cortex was bathed in warm liquid paraffin throughout the experiment. A coaxial bipolar stimulating electrode (tip separation 0.25mm) was positioned stereotaxically in the caudate nucleus such that the tip of the electrode corresponded to the area delineated by the co-ordinates L 2.5; A 8.5-95; D 5. (Paxinos and Watson 1986). […]
(§5) Extracellular recordings were obtained from single neurones in the ipsilateral substantia nigra via either the centre barrel (3.5M NaCl) of a multibarrelled microelectrode or a single barrelled electrode (3.5M NaCl), attached to but protruding 10-20 » beyond, a multibarrelled electrode. […] Effects of agonist drugs on the GABA autoreceptor could be measured as an attenuation of the synaptic inhibition evoked by stimulation of the caudate. […]

GABA autoreceptor [3] = assay: Procedure 3: effect on a GABA synapse in vivo, caudate-evoked synaptic inhibition of nigral neurones, iontophoretic ejection; parameters: species or system rat; settings: anaesthetized male albino rats; ejected iontophoretically in the vicinity of nigral neurones; action reversible
Method: The compounds were also tested for their effect on a GABA synapse in vivo in the following procedure:
as §3, §4, §5

T1 sequence (Q9Z0U4 20-960): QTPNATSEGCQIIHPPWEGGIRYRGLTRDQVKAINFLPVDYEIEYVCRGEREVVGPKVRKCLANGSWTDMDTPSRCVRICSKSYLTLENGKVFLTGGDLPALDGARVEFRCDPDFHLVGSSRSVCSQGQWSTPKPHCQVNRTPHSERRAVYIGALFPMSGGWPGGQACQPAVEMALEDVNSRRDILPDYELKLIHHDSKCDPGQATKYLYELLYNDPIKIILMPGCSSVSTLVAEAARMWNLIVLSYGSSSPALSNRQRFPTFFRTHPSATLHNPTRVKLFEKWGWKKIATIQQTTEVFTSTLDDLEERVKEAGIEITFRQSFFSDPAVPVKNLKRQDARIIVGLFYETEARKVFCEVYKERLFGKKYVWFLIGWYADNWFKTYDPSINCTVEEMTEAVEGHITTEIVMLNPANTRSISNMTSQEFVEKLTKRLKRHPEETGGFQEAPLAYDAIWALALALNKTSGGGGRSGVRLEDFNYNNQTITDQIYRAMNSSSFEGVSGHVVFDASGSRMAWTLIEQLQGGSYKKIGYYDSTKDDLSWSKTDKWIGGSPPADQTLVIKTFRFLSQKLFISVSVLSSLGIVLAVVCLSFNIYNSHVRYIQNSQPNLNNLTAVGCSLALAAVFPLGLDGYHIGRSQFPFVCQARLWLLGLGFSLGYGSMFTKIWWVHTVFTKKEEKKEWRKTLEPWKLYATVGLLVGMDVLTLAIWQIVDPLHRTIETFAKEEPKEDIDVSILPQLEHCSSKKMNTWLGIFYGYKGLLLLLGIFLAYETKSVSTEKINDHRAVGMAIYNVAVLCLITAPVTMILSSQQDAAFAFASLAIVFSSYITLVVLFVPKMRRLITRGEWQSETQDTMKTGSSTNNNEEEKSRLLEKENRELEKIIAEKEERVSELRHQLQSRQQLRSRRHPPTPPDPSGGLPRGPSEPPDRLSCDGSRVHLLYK
T1 sequence (O88871 41-940 partner): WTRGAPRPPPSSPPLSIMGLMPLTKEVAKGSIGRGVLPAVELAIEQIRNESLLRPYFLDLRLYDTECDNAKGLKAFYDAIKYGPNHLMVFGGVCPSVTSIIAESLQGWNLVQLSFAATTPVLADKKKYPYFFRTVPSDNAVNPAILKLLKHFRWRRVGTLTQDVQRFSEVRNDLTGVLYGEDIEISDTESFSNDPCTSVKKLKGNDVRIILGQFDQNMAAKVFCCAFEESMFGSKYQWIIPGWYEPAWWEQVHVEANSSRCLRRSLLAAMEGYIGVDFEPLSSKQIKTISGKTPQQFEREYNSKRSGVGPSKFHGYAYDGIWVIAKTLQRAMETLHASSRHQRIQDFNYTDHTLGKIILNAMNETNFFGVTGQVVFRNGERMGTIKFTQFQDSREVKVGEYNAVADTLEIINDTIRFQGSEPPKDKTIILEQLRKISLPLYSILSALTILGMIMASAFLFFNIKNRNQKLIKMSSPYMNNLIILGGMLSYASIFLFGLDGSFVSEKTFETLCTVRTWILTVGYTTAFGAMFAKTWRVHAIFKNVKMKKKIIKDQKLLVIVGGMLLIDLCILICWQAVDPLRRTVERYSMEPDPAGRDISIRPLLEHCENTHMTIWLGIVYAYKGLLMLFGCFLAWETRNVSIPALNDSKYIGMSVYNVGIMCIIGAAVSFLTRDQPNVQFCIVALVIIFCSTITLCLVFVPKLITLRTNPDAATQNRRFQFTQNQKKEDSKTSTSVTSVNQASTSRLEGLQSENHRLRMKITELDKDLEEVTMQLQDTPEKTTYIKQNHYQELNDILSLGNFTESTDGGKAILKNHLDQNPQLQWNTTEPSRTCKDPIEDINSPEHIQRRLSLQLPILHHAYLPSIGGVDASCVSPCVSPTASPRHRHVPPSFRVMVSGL

| SMILES | GABA autoreceptor pD2 values (GABA autoreceptor [1]) | inhibition at 10 µM (GABAB receptors) | Enhancement of [3H]-flunitrazepam binding (GABAA receptors) | effect on postsynaptic GABAA receptors [2] | synaptically-evoked, GABA-mediated inhibition in the substantia nigra (GABA autoreceptor [3]) | activity at the GABA autoreceptor (GABA autoreceptor [1]; in vitro) | activity at GABAB sites in vitro (GABAB receptors; in vitro) | activity at GABAA sites in vitro (GABAA receptors; in vitro) |
| --- | --- | --- | --- | --- | --- | --- | --- | --- |
| O=C(O)CCCN(Cc1ccc(Cl)cc1)Cc1ccc(Cl)cc1 [Example 2, 4-[N,N-Bis-(4-Chlorobenzyl)amino]butyric acid] | 7.0 | 0% | 0 | – | – | – | – | – |
| NC(=O)CCCN(Cc1ccc(Cl)cc1)Cc1ccc(Cl)cc1 [Example 3, 4-[N,N-Bis-(4-chlorobenzyl)amino]butyramide] | 6.6 | 0% | 0 | – | – | – | – | – |
| NC(=O)CCCN(Cc1ccccc1)Cc1ccccc1 [Example 4, 4-(N,N-Dibenzylamino)butyramide] | 7.0 | > 20% | 0 | – | – | – | – | – |
| O=C(O)CCCN(Cc1ccccc1)Cc1ccccc1 [Example 5, 4-(N,N-Dibenzylamino)butyric acid] | 7.1 | 20% | 0 | without affecting | almost abolished | – | – | – |
| Cc1ccc(CN(CCCC(=O)O)Cc2ccc(C)cc2)cc1 [Example 8, 4-[N,N-Bis-(4-methylbenzyl)amino]butyric acid] | 7.4 | 10% | 0 | – | – | – | – | – |
| O=C(O)CCCN(Cc1ccc(Cl)c(Cl)c1)Cc1ccc(Cl)c(Cl)c1 [Example 10, 4-[N,N-Bis-(3,4-dichlorobenzyl)amino]butyric acid] | 7.5 | 0% | 0 | – | – | – | – | – |
| COc1ccc(CN(CCCC(N)=O)Cc2ccc(OC)cc2)cc1 [Example 12, 4-[N,N-Bis-(4-Methoxybenzyl)amino]butyramide] | 6.0 | 0% | 0 | – | – | – | – | – |
| CN(CCCC(N)=O)Cc1ccc(Cl)cc1 [Example 24, 4-[(N-(p-Chlorobenzyl)-N-methyl)amino]butyramide] | 7.5 | 0% | 0 | – | – | – | – | – |
| NC(=O)CCC/N=C(\c1ccc(Cl)cc1)c1cc(F)ccc1O [Progabide, reference compound] | – | – | – | – | – | active | – | – |
| CCCC/N=C(/c1cc(Cl)ccc1O)c1ccccc1Cl [fengabine, reference compound] | 8.0 | – | – | – | – | – | little or no activity | little or no activity |
